Test results as given in US6369101B1, “Therapeutic method to treat herpes virus infection” (Regents of the University of Minnesota, priority 1999, dated 2002).
In brackets after ≈: the same amount, converted by molar mass.

Columns and labels:
HSV-1 strain E-377 = experiment: CPE inhibition assay, HSV-1 E377 in human foreskin fibroblast cells; format: cell-based, herpes simplex virus type 1; details: for EC50 HSV-1 E377: CPE inhibition in HFF cells; as to Qualitative CPE at 2.0 ml dose HSV-1 E377: key: +++ = Complete cytopathic effect; ++ = Moderate cytopathic effect; + = Minimum cytopathic effect; − = No cytopathic effect
HSV-2 (strain G) = experiment: Plaque reduction assay, HSV-2 strain G in HEp-2 cells; format: cell-based, herpes simplex virus type 2; details: HSV-2 virus control 47
Protocol: HEp-2 cells were grown to monolayer in 24 well tissue culture plates in DMEM containing 10% fetal calf serum at 37° C. for 24-36 hours in the presence of 5% CO2. The monolayer of HEp-2 cells was infected with 0.1 ml of HSV- 1 (strain F) or HSV-2 (strain G) containing 100 pfu. The viruses were allowed to adsorb for 1 hour at 37° C. in the presence of 5% CO2. All wells containing virus infected cells except virus control were overlaid with 0.9 ml of DMEM and 1 ml of test compound. The virus control and cell control received DMEM only. All microtiter plates were incubated at 37° C. in the presence of 5% CO2 and observed twice daily for 72 hours for viral CPE. At the end of the experiment, plates were stained with 0.1% crystal violet and the results were quantified by counting plaque forming units.

Vero cells = experiment: Cytotoxic effect in Vero cell line; format: cell-based, African green monkey; details: Vero cell line
Protocol: Human laryngeal epithelial carcinoma cells (HEp-2, ATCC, Rockville, Md.) were used for testing of antiviral compounds by cytopathic effect (CPE) inhibition and plaque reduction assay. […] HEp-2, African green monkey kidney cells (Vero, ATCC), HFF and primary rabbit kidney cells were used to determine the cytotoxic effect of compounds of formula I. These cells were propagated in Dulbeco's modified Eagle's medium (DMEM) (Sigma, USA) supplemented with 10% inactivated fetal calf serum (FCS), 25 mM HEPES, 0.2% sodium bicarbonate and 1% penicillin/-streptomycin at 37° C. in the presence of 5% CO2.
HFF, Vero and HEp-2 cells were seeded in 24-well tissue culture plates at a concentration of […] in DMEM containing 10% FCS and incubated for 24 hours at 37° C. in the presence of 5% CO2. To the monolayer of these cells 0.5, 1.0, 1.5 and 2.0 ml of solution of antiviral compounds were added in the respective wells in duplicate and the cells were then incubated in a 5% CO2 incubator at 37° C. for 72 hours. The cells were observed daily for any change in morphology. […] At the end of this time, the media-drug solution was removed and the cells washed. One ml of 0.25% trypsin was added to each well and incubated until the cells start to come off of the plate. The cells-media mixture was then pipetted up and down several times to resuspend the cells and 0.2 ml of the cell suspension was added to 9.8 ml of trypan blue and cells were counted using hemocytometer. Each sample was counted three times with three replicate wells per sample.

HSV-2 strain G = experiment: CPE inhibition, HSV-2 strain G in HEp-2 cells; as to Cytopathic Effect (CPE) Inhibition HSV-2 Strain G: key: +++ = Complete cytopathic effect; ++ = Moderate cytopathic effect; + = Minimum cytopathic effect; − = No cytopathic effect; format: cell-based, herpes simplex virus type 2; details: for Cytopathic Effect (CPE) Inhibition HSV-2 Strain G: conc. per compound (ng/ml)
HSV-1 (E377) = experiment: Cutaneous HSV-1 infection in guinea pigs, topical ointment; format: in vivo, guinea pig; details: topical ointment (2% betulin, 2% allobetulin, 5% Acyclovir) twice daily for 3 days
HFF cells = experiment: CC50 in HFF cells (Table 3); format: cell-based, human; details: HFF cells
Protocol: The cells were observed daily for any change in morphology. The rounding and lysis of cells were observed if the compound has cytotoxic effect. At the end of this time, the media-drug solution was removed and the cells washed. […] The cells-media mixture was then pipetted up and down several times to resuspend the cells and 0.2 ml of the cell suspension was added to 9.8 ml of trypan blue and cells were counted using hemocytometer. Each sample was counted three times with three replicate wells per sample.

[1] = HFF cells, solution conc. per compound (ng/ml) (Acyclovir 250)
[2] = conc. per compound (ng/ml) (Acyclovir 250)
[3] = Varicella-Zoster Virus section of Table 3

Row | Compound | EC50 HSV-1 E377 (HSV-1 strain E-377) [mg/L] | Qualitative CPE at 2.0 ml dose HSV-1 E377 (HSV-1 strain E-377; HFF cells, Conc. 12500 ng/ml) | Qualitative CPE at 2.0 ml dose HSV-1 E377 (HSV-1 strain E-377; [1]) | Plaque Reduction Assay Average pfu/10^5 Cells HSV-2 Strain G (HSV-2 (strain G); Conc. 12500 ng/ml) [pfu/10^5 Cells] | Plaque Reduction Assay Average pfu/10^5 Cells HSV-2 Strain G (HSV-2 (strain G); [2]) [pfu/10^5 Cells] | CC50 (Vero cells) [mg/L] | Cytopathic Effect (CPE) Inhibition HSV-2 Strain G (HSV-2 strain G) | effect on cutaneous HSV-1 infection (in words) (HSV-1 (E377)) | CC50 (HFF cells; [3]) [mg/L] | anti HSV-1 activity (in words) (HSV-1 strain E-377; HFF cells, HSV-1 (E377)) | anti HSV-2 activity (in words) (HSV-2 strain G; qualitative CPE inhibition assay) | CC50 (HFF cells; Human Cytomegalovirus section of Table 3) [mg/L]
1 | acycloguanosine [Acyclovir, reference compound] | 1.6 | + | +++ | 30 | 42 | 0.25 | +++ | diminished the development of the clinical infectious process | >100 |  |  | 
2 | C=C(C)[C@@H]1CC[C@]2(CO)CC[C@]3(C)[C@H](CC[C@@H]4[C@@]5(C)CC[C@H](O)C(C)(C)[C@@H]5CC[C@]43C)[C@@H]12 [Betulin, lup-20(29)-ene-3β, 28-diol, reference compound] | 0.25 (≈ 0.565 µM) |  | +++ |  | 16 | 0.125 (≈ 0.282 µM) | + | diminished the development of the clinical infectious process | 0.0141 (≈ 0.0318 µM) | significant anti-HSV-1 activity | significant anti HSV-2 activity | 0.0142 (≈ 0.0321 µM)
